# Laboratory results published in PubChem BioAssay (NCI).
#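 Cells were grown in 96-well plates and exposed to each compound for 48 hours at five concentrations; endpoints were interpolated linearly between bracketing concentrations, or set to the highest concentration if not reached. TGI is the concentration that stops growth completely.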
# Assays:
# Experiment in all cases: growth of human tumour cells (NCI), 48 h
# [1] = system: IGROV1 ovarian
# [2] = system: SNB-75 CNS
# [3] = system: DLD-1 colon
# [4] = system: SF-268 CNS
# [5] = system: MOLT-4 leukemia
# [6] = system: MALME-3M melanoma
# [7] = system: SR leukemia
# [8] = system: OVCAR-3 ovarian
# [9] = system: M19-MEL melanoma
# [10] = system: RPMI-8226 leukemia
# [11] = system: CCRF-CEM leukemia
# [12] = system: HT29 colon
# [13] = system: SNB-78 CNS
# [14] = system: SN12C renal
# [15] = system: HOP-62 NSCLC
# [16] = system: EKVX NSCLC
# [17] = system: CAKI-1 renal
# [18] = system: SF-539 CNS
# [19] = system: DMS 273 small cell lung
# [20] = system: K-562 leukemia
# [21] = system: NCI-H23 lung
# [22] = system: UO-31 renal
# [23] = system: KM12 colon
# [24] = system: U251 CNS
# [25] = system: COLO 205 colon
# [26] = system: ACHN renal
# [27] = system: NCI-H460 lung
# [28] = system: NCI-H522 lung
# [29] = system: XF 498 CNS
# [30] = system: DMS 114 small cell lung
# [31] = system: HOP-92 NSCLC
# [32] = system: HCT-15 colon
# [33] = system: SW-620 colon
# [34] = system: HCT-116 colon
# [35] = system: SNB-19 CNS
# [36] = system: SK-MEL-5 melanoma
# [37] = system: A549 NSCLC
# [38] = system: SK-MEL-2 melanoma
# [39] = system: M14 melanoma
# [40] = system: UACC-62 melanoma
# [41] = system: SK-MEL-28 melanoma
# [42] = system: LXFL 529 NSCLC
# [43] = system: TK-10 renal
# [44] = system: A498 renal
# [45] = system: SK-OV-3 ovarian
# [46] = system: 786-0 renal
# [47] = system: OVCAR-8 ovarian
# [48] = system: HCC-2998 colon
# [49] = system: SF-295 CNS
# [50] = system: UACC-257 melanoma
# [51] = system: NCI-H226 lung
# [52] = system: HL-60(TB) leukemia
# [53] = system: OVCAR-5 ovarian
# [54] = system: OVCAR-4 ovarian
# [55] = system: LOX IMVI melanoma
# [56] = system: RXF 393 renal
# [57] = system: KM20L2 colon
structure (smiles),measurement,setting,value
CCOC(=O)Cn1c(=O)n(C)c(=O)c2[nH]cnc21,TGI,[1],> 100 µM
same,TGI,[2],> 100 µM
same,TGI,[3],> 100 µM
same,TGI,[4],> 100 µM
same,TGI,[5],> 100 µM
same,TGI,[6],> 100 µM
same,TGI,[7],> 100 µM
same,TGI,[8],> 100 µM
same,TGI,[9],> 100 µM
same,TGI,[10],> 100 µM
same,TGI,[11],> 100 µM
same,TGI,[12],> 100 µM
same,TGI,[13],> 100 µM
same,TGI,[14],> 100 µM
same,TGI,[15],> 100 µM
same,TGI,[16],> 100 µM
same,TGI,[17],> 100 µM
same,TGI,[18],> 100 µM
same,TGI,[19],> 100 µM
same,TGI,[20],> 100 µM
same,TGI,[21],> 100 µM
same,TGI,[22],> 100 µM
same,TGI,[23],> 100 µM
same,TGI,[24],> 100 µM
same,TGI,[25],> 100 µM
same,TGI,[26],> 100 µM
same,TGI,[27],> 100 µM
same,TGI,[28],> 100 µM
same,TGI,[29],> 100 µM
same,TGI,[30],> 100 µM
same,TGI,[31],> 100 µM
same,TGI,[32],> 100 µM
same,TGI,[33],> 100 µM
same,TGI,[34],> 100 µM
same,TGI,[35],> 100 µM
same,TGI,[36],> 100 µM
same,TGI,[37],> 100 µM
same,TGI,[38],> 100 µM
same,TGI,[39],> 100 µM
same,TGI,[40],> 100 µM
same,TGI,[41],> 100 µM
same,TGI,[42],> 100 µM
same,TGI,[43],> 100 µM
same,TGI,[44],> 100 µM
same,TGI,[45],> 100 µM
same,TGI,[46],> 100 µM
same,TGI,[47],> 100 µM
CCOC(=O)c1oc2c(OC)cc(Cl)c3c2c1CCC3,TGI,[1],> 100 µM
same,TGI,[48],> 100 µM
same,TGI,[2],76.5 µM
same,TGI,[3],> 100 µM
same,TGI,[49],> 100 µM
same,TGI,[4],> 100 µM
same,TGI,[5],> 100 µM
same,TGI,[6],> 100 µM
same,TGI,[7],> 100 µM
same,TGI,[8],28.3 µM
same,TGI,[9],> 100 µM
same,TGI,[10],> 100 µM
same,TGI,[11],> 100 µM
same,TGI,[12],> 100 µM
same,TGI,[13],> 100 µM
same,TGI,[14],> 100 µM
same,TGI,[16],> 100 µM
same,TGI,[50],> 100 µM
same,TGI,[18],> 100 µM
same,TGI,[51],73.3 µM
same,TGI,[19],> 100 µM
same,TGI,[20],> 100 µM
same,TGI,[21],> 100 µM
same,TGI,[22],65.1 µM
same,TGI,[23],> 100 µM
same,TGI,[52],> 100 µM
same,TGI,[24],> 100 µM
same,TGI,[25],> 100 µM
same,TGI,[26],> 100 µM
same,TGI,[27],> 100 µM
same,TGI,[28],> 100 µM
same,TGI,[53],> 100 µM
same,TGI,[29],80.6 µM
same,TGI,[30],> 100 µM
same,TGI,[54],> 100 µM
same,TGI,[31],63.8 µM
same,TGI,[32],> 100 µM
same,TGI,[33],> 100 µM
same,TGI,[34],> 100 µM
same,TGI,[35],97.6 µM
same,TGI,[55],> 100 µM
same,TGI,[36],> 100 µM
same,TGI,[37],> 100 µM
same,TGI,[38],> 100 µM
same,TGI,[39],> 100 µM
same,TGI,[40],> 100 µM
same,TGI,[41],> 100 µM
same,TGI,[42],> 100 µM
same,TGI,[43],79.3 µM
same,TGI,[44],> 100 µM
same,TGI,[45],> 100 µM
same,TGI,[56],65.3 µM
same,TGI,[46],> 100 µM
same,TGI,[47],> 100 µM
CN(N=O)C(=O)N(N)CCCCC(NC(=O)OCc1ccccc1)C(=O)OCc1ccccc1 (stereo unspecified),TGI,[1],> 100 µM
same,TGI,[48],63.4 µM
same,TGI,[2],62.8 µM
same,TGI,[3],> 100 µM
same,TGI,[49],> 100 µM
same,TGI,[5],52.6 µM
same,TGI,[6],95.5 µM
same,TGI,[57],> 100 µM
same,TGI,[8],57 µM
same,TGI,[9],> 100 µM
same,TGI,[10],> 100 µM
same,TGI,[11],38.5 µM
same,TGI,[12],> 100 µM
same,TGI,[13],85.9 µM
same,TGI,[14],46.3 µM
same,TGI,[15],34.2 µM
same,TGI,[16],> 100 µM
same,TGI,[50],51.7 µM
same,TGI,[17],72.3 µM
same,TGI,[18],35.2 µM
same,TGI,[51],96.2 µM
same,TGI,[19],> 100 µM
same,TGI,[20],> 100 µM
same,TGI,[21],38.8 µM
same,TGI,[22],33.8 µM
same,TGI,[23],> 100 µM
same,TGI,[52],16.2 µM
same,TGI,[24],> 100 µM
same,TGI,[25],45.6 µM
same,TGI,[26],34.2 µM
same,TGI,[27],> 100 µM
same,TGI,[28],24.9 µM
same,TGI,[53],> 100 µM
same,TGI,[29],32.2 µM
same,TGI,[30],> 100 µM
same,TGI,[54],> 100 µM
same,TGI,[31],34.5 µM
same,TGI,[32],> 100 µM
same,TGI,[33],> 100 µM
same,TGI,[34],> 100 µM
same,TGI,[35],> 100 µM
same,TGI,[55],45.8 µM
same,TGI,[36],> 100 µM
same,TGI,[37],> 100 µM
same,TGI,[38],> 100 µM
same,TGI,[39],70.7 µM
same,TGI,[40],44.7 µM
same,TGI,[41],> 100 µM
same,TGI,[42],> 100 µM
same,TGI,[43],> 100 µM
same,TGI,[44],> 100 µM
same,TGI,[45],> 100 µM
same,TGI,[56],51.6 µM
same,TGI,[46],66.5 µM
same,TGI,[47],> 100 µM
